This is an account of results in patent US10669289B2, “Boronic acid derivatives” (MERCK PATENT GMBH, priority 2014, dated 2020).

Assay [1] has as its target human constitutive proteasome (Beta5) (Homo sapiens (Human), UniProt P28074). The assay can be described thus: Determination of Beta5 activity (fluorescence intensity assay, Suc-LLVY-AMC). Format: biochemical. Summed up:
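Purified human constitutive proteasome (1.25 nM) preincubated with compounds (30 μM–15 pM) for 20 min (default) or 120 min at 25 °C in 50 mM Tris pH 7.4, 0.03% SDS, 1 mM EDTA, 1% DMSO. Suc-LLVY-AMC substrate at 40 μM, 60 min at 37 °C. Fluorescence read at ex 350/em 450 nm.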

Assay [2] deals with human immuno proteasome (LMP7) (Homo sapiens (Human), UniProt P28062). Nature of the assay: Determination of LMP7 activity (fluorescence intensity assay, Suc-LLVY-AMC). Format: biochemical. In short, it runs like this: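 Fluorogenic Suc-LLVY-AMC cleavage (40 μM substrate, 60 min, 37° C., ex 350/em 450 nm) measured after 0.25 nM human immunoproteasome was exposed to compound at 30 μM–15 pM. Preincubation was 20 min by default or 120 min (long) at 25° C., in Tris pH 7.4 with 0.03% SDS, 1 mM EDTA and 1% DMSO.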

[3] abbreviates: LMP7 versus Beta5, incubation for 20 minutes.
Where [4] appears, read: LMP7 versus Beta5, long incubation (120 min).

As for `C=C(C)C(=O)N(CC)CC(=O)N[C@@H](Cc1ccc(C)cc1C)B(O)O` [Compound No. 32, [(1R)-2-(2,4-dimethylphenyl)-1-[[2-[ethyl(2-methylprop-2-enoyl)-amino]acetyl]amino]ethyl]boronic Acid], the figures for the IC50 in assay [1] (incubation for 20 minutes) and in assay [2] (incubation for 20 minutes) were more than 5000 nM and 50 to 500 nM, respectively. The “Selectivity LMP7 vs Beta5” value in assay [2] (setting [3]) was “+++ (70 ≤ 100)”.
As for `C=CC(=O)N(CC(=O)N[C@@H](Cc1ccsc1)B(O)O)c1ccc(CC)cc1` [Compound No. 96, [(1R)-1-[[2-(4-ethyl-N-prop-2-enoyl-anilino)acetyl]amino]-2-(3-thienyl)ethyl]boronic Acid], the results for the half-maximal inhibitory concentration (IC50) in assay [1] (long incubation (120 min)) and in assay [2] (long incubation (120 min)) were 500 to 5000 nM and less than 50 nM, respectively. Further, in assay [2] (setting [4]), the “Selectivity LMP7 vs Beta5” value was “+++++ (Selectivity ≥ 150)”.
Turning to `C=CC(=O)N(CC(=O)N[C@@H](Cc1ccsc1)B(O)O)c1cccc(C(=O)N(C)C)c1` [Compound No. 102, [(1R)-1-[[2-[3-(dimethylcarbamoyl)-N-prop-2-enoyl-anilino]acetyl]amino]-2-(3-thienyl)ethyl]boronic Acid], the IC50 in assay [1] (long incubation (120 min)) was 500 to 5000 nM; in assay [2] (long incubation (120 min)) it was less than 50 nM. The “Selectivity LMP7 vs Beta5” value in assay [2] (setting [4]) is reported as “++ (50 ≤ Selectivity < 70)”.
Turning to `CCN(CC(=O)N[C@@H](Cc1ccc(C)cc1C)B(O)O)C(=O)C=C(C)C` [Compound No. 24, [(1R)-2-(2,4-dimethylphenyl)-1-[[2-[ethyl(3-methylbut-2-enoyl)amino]-acetyl]amino]ethyl]boronic Acid], the IC50 was in the range of 500 to 5000 nM in assay [1] (incubation for 20 minutes) and 50 to 500 nM in assay [2] (incubation for 20 minutes). In addition, the “Selectivity LMP7 vs Beta5” value in assay [2] (setting [3]) is listed as “++ (50 ≤ Selectivity < 70)”.
Take `C=CC(=O)N(CC)CC(=O)N[C@@H](Cc1cccc2ccccc12)B(O)O` [Compound No. 79, [(1R)-1-[[2-[ethyl(prop-2-enoyl)amino]acetyl]amino]-2-(1-naphthyl)ethyl]boronic Acid]: the IC50 is more than 5000 nM in assay [1] (long incubation (120 min)) and 50 to 500 nM in assay [2] (long incubation (120 min)). The “Selectivity LMP7 vs Beta5” value in assay [2] (setting [4]) was “+++++ (Selectivity ≥ 150)”.
With `C=CC(=O)N(CC)CC(=O)N[C@@H](Cc1ccc(C)cc1)B(O)O` [Compound No. 31, [(1R)-1-[[2-[ethyl(prop-2-enoyl)amino]acetyl]amino]-2-(p-tolyl)ethyl]-boronic Acid], the half-inhibitory concentration (IC50) in assay [1] (incubation for 20 minutes) was 500 to 5000 nM; in assay [2] (incubation for 20 minutes), less than 50 nM. Also, the “Selectivity LMP7 vs Beta5” value in assay [2] (setting [3]) is “++++ (100 ≤ Selectivity < 150)”.
On to `C=CC(=O)N(C)CC(=O)N[C@@H](Cc1cccc2ccccc12)B(O)O` [Compound No. 80, [(1R)-1-[[2-[methyl(prop-2-enoyl)amino]acetyl]amino]-2-(1-naphthyl)ethyl]boronic Acid], for which the half-inhibitory concentration (IC50) in assay [1] (long incubation (120 min)) was more than 5000 nM; in assay [2] (long incubation (120 min)), 50 to 500 nM. Moreover, in assay [2] (setting [4]), the “Selectivity LMP7 vs Beta5” value is “+++++ (Selectivity ≥ 150)”.
`C=CC(=O)N(C)CC(=O)N[C@@H](Cc1ccc(C(F)(F)F)cc1C)B(O)O` [Compound No. 67, [(1R)-1-[[2-[methyl(prop-2-enoyl)amino]acetyl]amino]-2-[2-methyl-4-(trifluoromethyl)phenyl]ethyl]boronic Acid]: the results for the IC50 in assay [1] (long incubation (120 min)) and in assay [2] (long incubation (120 min)) were more than 5000 nM and less than 50 nM, respectively. Also, the “Selectivity LMP7 vs Beta5” value in assay [2] (setting [4]) is listed as “+++++ (Selectivity ≥ 150)”.
`C=CC(=O)N(CCC)CC(=O)N[C@@H](Cc1ccc(C)c(C)c1)B(O)O` [Compound No. 5, [(1R)-2-(3,4-dimethylphenyl)-1-[[2-[prop-2-enoyl(propyl)amino]-acetyl]amino]ethyl]boronic Acid]: the results for the 50% inhibitory concentration (IC50) in assay [1] (incubation for 20 minutes) and in assay [2] (incubation for 20 minutes) were more than 5000 nM and 50 to 500 nM, respectively. Moreover, the “Selectivity LMP7 vs Beta5” value in assay [2] (setting [3]) is listed as “++++ (100 ≤ Selectivity < 150)”.
Consider `C=CC(=O)N(CC(=O)N[C@@H](Cc1cccc(F)c1)B(O)O)c1ccccc1F` [Compound No. 98, [(1R)-2-(3-fluorophenyl)-1-[[2-(2-fluoro-N-prop-2-enoyl-anilino)acetyl]amino]ethyl]boronic Acid], for which the IC50 in assay [1] (long incubation (120 min)) is more than 5000 nM; in assay [2] (long incubation (120 min)), less than 50 nM. Moreover, the “Selectivity LMP7 vs Beta5” value in assay [2] (setting [4]) was “+++++ (Selectivity ≥ 150)”.
Turning to `C=CC(=O)N(CC(=O)N[C@@H](C[C@H]1COc2c(C)cccc21)B(O)O)c1ccccc1F` [Compound No. 91, [(1R)-1-[[2-(2-fluoro-N-prop-2-enoyl-anilino)acetyl]amino]-2-[(3R)-7-methyl-2,3-dihydrobenzofuran-3-yl]ethyl]boronic Acid], the half-inhibitory concentration (IC50) is more than 5000 nM in assay [1] (incubation for 20 minutes) and 50 to 500 nM in assay [2] (incubation for 20 minutes). For the same molecule, in assay [2] (setting [3]), the “Selectivity LMP7 vs Beta5” value is recorded as “+++++ (Selectivity ≥ 150)”.
Consider `C=CC(=O)N(C)CC(=O)N[C@@H](Cc1ccc(C)c(C)c1C)B(O)O` [Compound No. 74, [(1R)-1-[[2-[methyl(prop-2-enoyl)amino]acetyl]amino]-2-(2,3,4-trimethylphenyl)ethyl]boronic Acid], for which the concentration for half-maximal inhibition (IC50) is more than 5000 nM in assay [1] (long incubation (120 min)) and less than 50 nM in assay [2] (long incubation (120 min)). Also, the “Selectivity LMP7 vs Beta5” value in assay [2] (setting [4]) is recorded as “+++++ (Selectivity ≥ 150)”.
The matching figures for `C=CC(=O)N(CC(=O)N[C@@H](Cc1ccsc1)B(O)O)c1ccc(OC)c(OC)c1` [Compound No. 99, [(1R)-1-[[2-(3,4-dimethoxy-N-prop-2-enoyl-anilino)acetyl]-amino]-2-(3-thienyl)ethyl]boronic Acid]: more than 5000 nM, less than 50 nM and “+++++ (Selectivity ≥ 150)”.
On to `C=CC(=O)N(CC(=O)N[C@@H](Cc1ccc(C)cc1C)B(O)O)c1ccc(F)cc1` [Compound No. 2, [(1R)-2-(2,4-dimethylphenyl)-1-[[2-(4-fluoro-N-prop-2-enoyl-anilino)acetyl]amino]ethyl]boronic Acid], for which the IC50 in assay [1] (incubation for 20 minutes) is 500 to 5000 nM; in assay [2] (incubation for 20 minutes) it was less than 50 nM. For the same molecule, the “Selectivity LMP7 vs Beta5” value in assay [2] (setting [3]) is given as “++++ (100 ≤ Selectivity < 150)”.
As for `C#CC(=O)N(C)CC(=O)N[C@@H](Cc1ccc(C)cc1C)B(O)O` [Compound No. 11, [(1R)-2-(2,4-dimethylphenyl)-1-[[2-[methyl(prop-2-ynoyl)amino]-acetyl]amino]ethyl]boronic Acid], the values for the half-maximal inhibitory concentration (IC50) in assay [1] (incubation for 20 minutes) and in assay [2] (incubation for 20 minutes) were 500 to 5000 nM and less than 50 nM, respectively. Also, in assay [2] (setting [3]), the “Selectivity LMP7 vs Beta5” value was “+++ (70 ≤ 100)”.
For `C=CC(=O)N(CCC)CC(=O)N[C@@H](Cc1ccc(C)cc1C)B(O)O` [Compound No. 6, [(1R)-2-(2,4-dimethylphenyl)-1-[[2-[prop-2-enoyl(propyl)amino]-acetyl]amino]ethyl]boronic Acid] the same measures were more than 5000 nM, 50 to 500 nM and “+++++ (Selectivity ≥ 150)”.
The matching figures for `C=CC(=O)N(CC)CC(=O)N[C@@H](Cc1ccc(Cl)cc1)B(O)O` [Compound No. 25, [(1R)-2-(4-chlorophenyl)-1-[[2-[ethyl(prop-2-enoyl)amino]acetyl]-amino]ethyl]boronic Acid]: 500 to 5000 nM, 50 to 500 nM and “+ (Selectivity < 50)”.

A word on the IC50: it is the concentration that inhibits the measured activity by half.
